In experiment [1] the target is T1, CTSK in U2-OS cells (Homo sapiens, UniProt P43235).
T1 construct: ability to label endogenous CTSK activity in intact cells; endogenous in cells; host or cells: U-2 OS
T1 sequence (P43235 115-329): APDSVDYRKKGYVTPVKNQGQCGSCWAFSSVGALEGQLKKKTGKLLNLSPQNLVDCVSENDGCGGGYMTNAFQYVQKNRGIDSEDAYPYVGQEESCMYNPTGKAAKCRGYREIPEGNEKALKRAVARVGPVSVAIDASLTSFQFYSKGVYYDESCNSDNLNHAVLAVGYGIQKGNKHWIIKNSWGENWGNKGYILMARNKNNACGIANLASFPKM
Kind of experiment: Colocalization of ABP with anti-CTSK antibody, confocal microscopy. It is filed as cell-based. To be noted: fixed U2-OS cells. The protocol:
The probes were then evaluated for their ability to detect active CTSK by fluorescent microscopy. ABPs were incubated with intact U‐2 OS cells, after preincubation with vehicle, a pan cathepsin inhibitor (GB111‐NH2 ),^[ [47] ^] or our selective CTSK inhibitor GD30. Cells were then fixed and imaged by confocal fluorescent microscopy, (Figure 3a). The irreversible GD32 detected active CTSK and was inhibited by both inhibitors, indicating probe specificity. […] However, when live cell imaging was performed without fixation, active CTSK was detected by GD42 although barely, reflecting the probe affinity together with the low level of active CTSK in this cell line (Figure 3b). In order to determine the specificity of GD32’s fluorescence signaling, U2‐OS cells were treated with the probe. […] Additionally, the increased extent of the antibody signal may be attributed to its interaction with the pro‐CTSK, or CTSK that is bound to an endogenous inhibitor, which should not be detected by GD32 since they are not active. Figure 3 CTSK activity detected in intact cells. a) Cultures of U2‐OS cells were grown in 8‐well chambers. […] Red, probe fluorescence, blue, DAPI. page 14: Evaluation of the permeability of GD30, and ODN to intact cells, competition assay: MG63, U87-MG, A549, and U-2 OS cells (5x10^5 cells/well) were seeded in a six-well plate one day before treatment. […]

The test system of experiment [2] is Jurkat cells. The experiment is described as follows: Cathepsin labeling in intact Jurkat cells that lack mature CTSK, fluorescent SDS-PAGE. It is filed as cell-based, human. As to conditions: probe 5 µM, up to 24 h. The protocol: To further corroborate the selectivity of GD32, we tested the labeling of Jurkat cells, which lack mature CTSK. Intact cells were incubated with the probe for different durations up to 24 h before they were lysed and analyzed by fluorescent SDS‐PAGE. […] These findings led us to select GD32 as a lead compound for further investigation of CTSK's activity and location in different biological and medical samples. page 8: Figure S7. Cathepsin labeling in intact Jurkat cells that lack mature CTSK. Jurkat cells were treated with GD32 or GB123 (5 µM) in a culture medium for different durations up to 24 h, followed by cell lysis, and fluorescent SDS-PAGE analysis. […] The gel was analyzed by western blot with anti CTSK antibody. While pro-CTSK is detected, indicated by the black arrow, the mature CTSK is not detected. (1 picture or pasted object on this page, not shown here)

With `C#CCNC(=O)[C@H](CC(C)C)N[C@@H](c1ccc(-c2ccc(S(=O)(=O)CCNC(=O)CCCCC[N+]3=C(/C=C/C=C/C=C4/N(C)c5ccc(S(=O)(=O)O)cc5C4(C)C)C(C)(C)c4cc(S(=O)(=O)O)ccc43)cc2)cc1)C(F)(F)F` [GD32], the “overlap coefficiency of probe signal (Cy5) with CTSK antibody (Cy3)” value in experiment [1] is 0.892. Moreover, in experiment [2], the “fluorescent bands after labeling” value is listed as “no fluorescent bands were detected”.

Values taken from publication PMC11481179, “Development and Application of Reversible and Irreversible Covalent Probes for Human and Mouse Cathepsin‐K Activity Detection, Revealing Nuclear Activity” (Advanced Science, 2024).
